Assay results from patent publication US20240156790A1, “COMPOUNDS, COMPOSITIONS, AND METHODS FOR MODULATING FERROPTOSIS AND TREATING EXCITOTOXIC DISORDERS” (THE TRUSTEES OF COLUMBIA UNIVERSITY IN THE CITY OF NEW YORK, priority 2018, published 2024).
“Also recorded” adds a separate entry of the source.

What was measured:
[1] = tested on: HT-1080 fibrosarcoma cells; details: cited from earlier work
[2] = Microsomal stability, rat (Table 1); assay type: in vitro ADME; details: Rat: Sprague Dawley; for half-life: liver microsomes, read-out: Microsomal Stability t1/2 (converted)
[3] = Microsomal stability, human liver microsomes (Table 1); assay type: in vitro ADME; details: Human: Pooled, 50 donors; for half-life: liver microsomes, read-out: Microsomal Stability t1/2 (converted)
HT-1080 cells [4] = test: Rescue activity of Fer-1 analogs: inhibition of erastin-, IKE- or RSL3-induced death (Alamar Blue viability); assay type: cell-based; details: Homo sapiens
Description: HT-1080 cells are cultured in DMEM containing 10% fetal bovine serum, 1% supplemented non-essential amino acids and 1% pen/strep mixture (Gibco) and maintained in a humidified environment at 37° C. with 5% CO2 in a tissue culture incubator. 1,000 HT-1080 cells are seeded per well in duplicate 384-well plates (Corning) using a BioMek FX liquid handling robot (Beckman Coulter). The next day, the medium is replaced with 36 μL of medium containing 10 μM erastin with 4 μL of medium containing a dilution series (previously prepared) of DMSO, Fer-1 (positive control) or Fer-1 analogs. […] Cells are incubated a further 6 hours and then the Alamar Blue fluorescence intensity recorded using a Victor 3 platereader (PerkinElmer)(ex/em 530/590). All experiments are performed at least twice and the background (no cells)-subtracted Alamar Blue values for each combination are averaged between replicates. The same procedure was repeated by replacing erastin (10 μM) with IKE (3 μM) or RSL3 (0.2 μM).

[5] = Microsomal stability, mouse liver microsomes (Table 1); assay type: in vitro ADME, Mouse: CD1; details: liver microsomes
Description: Each compound (1 μM) is incubated with mouse plasma, for 4 hours at 37° C., with shaking at 100 rpm. The concentration of compound in the buffer and plasma chambers is determined using LC-MS/MS. Metabolism of each compound is predicted using Sites of Metabolism (Schrodinger Suite), which combines intrinsic reactivity analysis (Hammett-Taft) with induced fit docking against 2C9, 2D6 and 3A4. This approach identifies 90% of known metabolism sites and has a false positive rate of 17%. The in vitro metabolic stability of each compound in mouse liver microsomes is determined. Pooled mouse liver microsomes are prepared and stored at −80° C. until needed. […]

[6] = Microsomal stability, dog (Table 1); assay type: in vitro ADME; details: liver microsomes; Dog: Beagle; read-out: Microsomal Stability t1/2
Description: Each compound (1 μM) is incubated with mouse plasma, for 4 hours at 37° C., with shaking at 100 rpm. The concentration of compound in the buffer and plasma chambers is determined using LC-MS/MS. Metabolism of each compound is predicted using Sites of Metabolism (Schrodinger Suite), which combines intrinsic reactivity analysis (Hammett-Taft) with induced fit docking against 2C9, 2D6 and 3A4. This approach identifies 90% of known metabolism sites and has a false positive rate of 17%. The in vitro metabolic stability of each compound in mouse liver microsomes is determined. Pooled mouse liver microsomes are prepared and stored at −80° C. until needed. Compound stability in liver microsomes is measured at 0, 15, 30, 45 and 60 minutes in duplicate, using LC-MS/MS analysis.

HT-1080 cells [7] = test: Rescue activity of selected Fer-1 analogs, dose-response in HT-1080 cells (cell titer glo); assay type: cell-based
Description: Selected Fer-1 analogs containing a pyridine moiety (FIG. 4) were tested to examine their efficacy and overall potency in inhibiting ferroptosis. For each of these compounds, dose-response curves were generated in HT-1080 cells looking at the effectiveness of the molecules in inhibiting ferroptosis induced by either 3 μM IKE or 0.2 μM RSL3, Fer-1 was used as a positive control. For each dose-response curve, 1,000 cells/well were seeded in a 384 well plate and allowed to adhere overnight prior to treating with compound from a daughter plate. Cells were treated for 48 hours, unless otherwise noted, prior to viability being analyzed using cell titer glo (40 μL per well). All liquid handling was performed using the BioMek. All samples were prepared in triplicate, unless otherwise noted.

HT-1080 cells [8] = test: Cell viability assays in HT-1080 cells, ferroptosis induced by IKE or RSL3 (Example 8); assay type: cell-based; details: for IC50: Homo sapiens, HT-1080, 48 h
Description: Cell culture assays were incubated at 37° C. with 5% CO2. HT-1080 cells were grown in DMEM (Corning) supplemented with 10% FBS (Life Technologies), 1% Penicillin-Streptomycin 10,000 U/mL (Gibco), and 1% MEM Non-Essential Amino Acids Solution 100× (Gibco). For cell viability assays, cells were trypsinized, counted, and seeded into 384-well white polypropylene plates at 1,000 cells/well, unless otherwise specified. After allowing cells to adhere overnight, compounds in DMSO stocks were arrayed in a 16-point dilution series prepared in a mother plate, and treated from a daughter plate, [DMSO]=0.28%. After 24 or 48 h, 50% CellTiter-Glo (Promega) 50% cell culture medium was added to each well and incubated at room temperature with shaking for 15 min. Luminescence was measured using a Victor X5 plate reader (PerkinElmer). All cell viability data were normalized to the DMSO vehicle condition. […] All 384w measurements were performed in triplicate
We first evaluated the efficacy of four pyridine analogs, TH-2-9-1, TH-2-31, TH-2-37-1, and TH-2-37-2, in suppressing ferroptosis induced by IKE and RSL3 in HT-1080 cells. […] We sought to determine whether incorporation of pyridine changed stability in mouse liver microsomes.

[9] = HT-1080, ^b 50% viability, HT-1080 treated with 3 μM IKE
[10] = HT-1080, ^c 50% viability, HT-1080 treated with 0.2 μM RSL3
[11] = CD1, mouse, Mouse: CD1, read-out: Microsomal Stability t1/2
[12] = HT-1080, ^a 50% viability, HT-1080 cells treated with 10 μM erastin

CC(C)(C)OC(=O)c1ccc(NC23CC4CC(CC(C4)C2)C3)c(N=Cc2cncnc2)c1 [SRS16-86]
decrease in potency relative to SRS11-92 [1]: > 50 fold
decrease in potency relative to fer-1 [1]: ~4 fold

C=C(/C=C\CNC12CC3CC(CC(C3)C1)C2)COC(C)(C)C [CFI-A4]
Microsomal Stability t1/2 [2]: ~0.333 h
Microsomal Stability t1/2 [3]: > 2 h
EC50 (HT-1080 cells [4]; [9]): 16 nM
EC50 (HT-1080 cells [4]; [10]): 1 nM

Cc1noc(-c2ccc(NC34CC5CC(CC(C5)C3)C4)c(NC3CCCCC3)c2)n1 [CFI-4083]
half-life ([5]; CD1 (mouse), mouse, human, in either mouse or human liver microsomes, read-out: T1/2): > 2 h
half-life [5, 11]: > 2 h
half-life [3]: > 2 h

CCOC(=O)c1ccc(NC2CCCCC2)c(NCc2ccccc2)c1 [SRS11-92]
potency, in words [1]: low nanomolar potency

Nc1cc(-c2ncco2)ccc1NC1CCCCC1 [CFI-4051]
half-life [6]: > 2 h
half-life [5, 11]: 0.0533 to 0.055 h
half-life [2]: 0.5 to 1 h
half-life [3]: > 2 h
EC50 (HT-1080 cells [4]; [12]): 36 nM
EC50 (HT-1080 cells [4]; [9]): 13 nM
EC50 (HT-1080 cells [4]; [10]): 5 nM

COc1cnc(NC2CCCCC2)c(NC2CCCCC2)c1 [TH-2-9-1, N^2,N^3-dicyclohexyl-5-methoxypyridine-2,3-diamine]
half-life [5, 11]: 0.128 h
death observed with RSL3 (HT-1080 cells [7]; 0.2 μM RSL3, inhibitor range 10 μM-0 μM): No death was observed
potency compared, in words (HT-1080 cells [7]; 3 μM IKE, 0.2 μM RSL3, 10 μM erastin): an order of magnitude more potent than Fer-1 for all inducers beyond RSL3; also recorded: the most potent analog for RSL3 alone
rescue against IKE and erastin (HT-1080 cells [7]; inhibitor 1 μM-0 μM, 3 μM IKE, 10 μM erastin, 48 hours): ~50%
potency relative to fer-1 at suppressing ferroptosis, in words (HT-1080 cells [8]): slightly less potent than fer-1 in inhibiting IKE-induced death
IC50 (HT-1080 cells [8]; ^b 2 μM IKE, 48 hours, 1,000 cells/well): 16.9 nM
IC50 (HT-1080 cells [8]; ^c 0.2 μM RSL3, 48 hours, 1,000 cells/well): 2.7 nM
EC50 (HT-1080 cells [4]; [12]): 0.1 nM
EC50 (HT-1080 cells [4]; [9]): 0.21 nM
EC50 (HT-1080 cells [4]; [10]): 0.2 nM

CC(C)(C)OC(=O)c1cc(N)c(NC23CC4CC(CC(C4)C2)C3)cc1Cl [CFI-A3]
half-life [6]: > 2 h
half-life [5, 11]: 0.27 to 0.277 h
half-life [2]: 0.5 to 1 h
half-life [3]: > 2 h
EC50 (HT-1080 cells [4]; [9]): 26 nM
EC50 (HT-1080 cells [4]; [10]): 6 nM

CCCC(CC)Nc1ccc(C(=O)OC(C)(C)C)cc1Nc1ccccc1 (stereo not shown) [CFI-4081]
Microsomal Stability t1/2 [3]: > 2 h
